Test results as given in patent US20140114067A1, “BENZIMIDAZOLE DERIVATIVES AS MITOCHONDRIAL FUNCTION MODULATORS” (KOREA INSTITUTE OF SCIENCE AND TECHNOLOGY, priority 2012, published 2014).

Key:
HT-22 cells [1] = assay: Improvement in mitochondrial membrane potential dropped by amyloid beta (JC-1 dye); format: cell-based; settings: compound 5 μM, amyloid beta 5 μM, 3 hours, JC-1 green:red ratio, amyloid beta damage = 0%, normal = 100%
Experimental: (§1) Meanwhile, the compound represented by Formula 1 according to the present invention is evaluated through a test to determine recovery of mitochondrial functions damaged by amyloid beta, as described in the following Test Example. After the test, the results are shown in terms of the percentages of mitochondrial function disorder caused by amyloid beta. The degree of mitochondrial function disorder caused by amyloid beta is taken as 0% and the normal condition in the absence of amyloid beta is shown as 100%.
To a transparent 96-well plate, HT-22 cells are inoculated in a number of 30,000 per well one day before the test. On the next day, JC-1 dye (Stratagen, USA) is diluted with Opti-MEM containing no phenol red to a concentration of 7.5 μM, and the resultant dilution is used to treat the cells for 1 hour and 15 minutes. The dyed cells are washed twice with phosphate buffer solution (PBS), followed by treatment with each compound to a final concentration of 5 μM per well. Then, the cells are cultured at 37° C. for 10 minutes. Particularly, for each drug, two wells are treated with amyloid beta (5 μM) and the other two wells are treated with the vehicle control (5 μM DMSO). Then, the cells are cultured at 37° C. for 3 hours. The fluorescence intensity of each well is read by using a fluorescence plate reader at 485/535 nm (green/J-monomer) and 560/595 nm (red/J-aggregate). Then, the ratio of green:red is calculated and the results are normalized by taking the change of the ratio between addition of amyloid beta and no-addition of amyloid beta in the vehicle control non-treated with drugs as 100%.

HT-22 cells [2] = assay: Recovery of ATP production capability reduced by amyloid beta (luciferin/luciferase); format: cell-based; settings: compound 5 μM, amyloid beta 5 μM, 7 hours, amyloid beta vehicle control without drug = 0%
Experimental: as §1
To a transparent 96-well plate, HT-22 cells are inoculated in a number of 10,000 per well one day before the test, followed by treatment with each compound to a final concentration of 5 μM per well. The cells are cultured at 37° C. for 10 minutes. Particularly, for each drug, two wells are treated with amyloid beta (5 μM) and the other two wells are treated with the vehicle control (5 μM DMSO). After the treatment, the cells are cultured at 37° C. for 7 hours. The cells treated with each drug are washed twice with PBS, lysed with Triton X-100 (1% in TSBT buffer) and agitated at room temperature for 5 minutes. […] is used to determine the protein amount of each well, and the same amount of protein taken from each well is added to a white 96-well plate. Then, […] (Molecular Probe, USA) for ATP determination containing d-luciferin and luciferase is added thereto and emission peaks generated from each of the wells are determined. After the determination, the peaks are normalized by taking the vehicle control to which amyloid beta is added without treatment with any drug as 0%.

Row | Compound | Improvement in Membrane Potential (%) (5 μM) (HT-22 cells [1]) | ATP Production Capability Recovery (%) (5 μM) (HT-22 cells [2])
1 | CCN1CCCC1CNC(=O)c1ccc(Cn2c(Cc3c(Cl)cccc3Cl)nc3ccccc32)cc1 (stereo not shown) [Compound 32, 4-((2-(2,6-dichlorobenzyl)-1H-benzo[d]imidazol-1-yl)methyl)-N-((1-ethylpyrrolidin-2-yl)methyl)benzamide] | 90% | 51%
2 | Cc1ccc(C(C)C)cc1NC(=O)Cn1c(Cc2c(Cl)cccc2Cl)nc2ccccc21 [Compound 23, 2-(2-(2,6-dichlorobenzyl)-1H-benzo[d]imidazol-1-yl)-N-(5-isopropyl-2-methylphenyl)acetamide] | 74% | 95%
3 | COc1ccc(OC)c(Cc2nc3ccccc3n2CC(=O)Nc2cc(C(C)(C)C)cc(C(C)(C)C)c2)c1 [Compound 17, N-(3,5-di-tert-butylphenyl)-2-(2-(2,5-dimethoxybenzyl)-1H-benzo[d]imidazol-1-yl)acetamide] | 54% | 46%
4 | Cc1ccc(C(C)C)cc1NC(=O)Cn1c(-c2cc(Cl)ccc2Cl)nc2ccc(Cl)cc21 [Compound 25, 2-(6-chloro-2-(2,5-dichlorophenyl)-1H-benzo[d]imidazol-1-yl)-N-(5-isopropyl-2-methylphenyl)acetamide] | 87% | 69%
5 | CN(C)CCCNC(=O)c1ccc(Cn2c(Cc3c(Cl)cccc3Cl)nc3ccccc32)cc1 [Compound 34, 4-((2-(2,6-dichlorobenzyl)-1H-benzo[d]imidazol-1-yl)methyl)-N-(3-(dimethylamino)propyl)benzamide] | 82% | 85%
6 | O=C(NCCCN1CCCCC1)c1ccc(Cn2c(Cc3c(Cl)cccc3Cl)nc3ccccc32)cc1 [Compound 37, 4-((2-(2,6-dichlorobenzyl)-1H-benzo[d]imidazol-1-yl)methyl)-N-(3-(piperidin-1-yl)propyl)benzamide] | 90% | 64%
7 | Cc1cccc(C(C)(C)C)c1NC(=O)Cn1c(-c2ccccc2)nc2ccccc21 [Compound 16, N-(2-tert-butyl-6-methylphenyl)-2-(2-phenyl-1H-benzo[d]imidazol-1-yl)acetamide] | 65% | 55%
8 | COc1ccc(OC)c(Cc2nc3ccccc3n2CC(=O)Nc2cc(Cl)cc(Cl)c2)c1 [Compound 18, N-(3,5-dichlorophenyl)-2-(2-(2,5-dimethoxybenzyl)-1H-benzo[d]imidazol-1-yl)acetamide] | 68% | 94%
